{"source": "patent US11331364B2", "about": "“Use for JNK inhibitor molecules for treatment of various diseases” (Xigen Inflammation Ltd., priority 2014, dated 2022)", "key": {"human whole blood": {"tested_on": "human whole blood", "assay": "PMA+ionomycin-induced cytokine release in human whole blood", "format": "cell-based", "details": "1, 3, 10 μM; 4 hours", "protocol": "FIG. 19 JNK inhibition and IL-2 release in human whole blood. The JNK inhibitor with SEQ ID NO: 172 was added at three different concentrations, namely 1, 3 and 10 μM 1 h before whole blood stimulation with PMA+ionomycin (25/700 ng/mL, 50/800 ng/mL and 50/1000 ng/mL) for 4 hours.\nFIG. 20 JNK inhibition and IFN-γ release in human whole blood. The JNK inhibitor with SEQ ID NO: 172 was added at three different concentrations, namely 1, 3 and 10 μM 1 h before whole blood stimulation with PMA+ionomycin (25/700 ng/mL, 50/800 ng/mL and 50/1000 ng/mL) for 4 hours.\nFIG. 21 JNK inhibition and TNF-α release in human whole blood. The JNK inhibitor with SEQ ID NO: 172 was added at three different concentrations, namely 1, 3 and 10 μM 1 h before whole blood stimulation with PMA+ionomycin (25/700 ng/mL, 50/800 ng/ml and 50/1000 ng/mL) for 4 hours.\nWhole blood is collected from anesthetized rat or human healthy volunteers using a venipuncture connected to a pre-labeled vacuum tube containing sodium citrate. Tubes are gently mixed by inversion 7-8 times; and are then kept at RT until stimulation. JNK inhibitor of SEQ ID NO: 172 is prepared 6 times concentrated in PBS, and 30 μl/well of mix is added into 96-well plate. Whole blood is diluted by 1:2 in PBS and 120 μl of diluted blood is added in each well where either PBS alone or JNK inhibitor of SEQ ID NO: 172 has been previously added. Whole blood is incubated at 37° C.; 85 rpm (Stuart Orbital incubator SI500) for 60 min. Activators (LPS) are the prepared, 30 μl/well of LPS, 6 times concentrated. After 60 min incubation, LPS is added to the blood, blood is mixed by pipetting up and down, and then kept for 4 h under agitation (85 rpm), at 37° C. After the 4 h incubation, the plates are centrifuged at about 770 g, 4° C. for 15 min in a pre-cooled centrifuge. […] Cytokine (IL-6, IL-2, IFNγ and TNFα) were then measured using standard Elisa kits (e.g. from R&D Systems: DuoSet Elisas; or from BD Biosciences: BD Opteia Set Elisa). Results are expressed as pg/ml of supernatant of the measured cytokine. […]"}, "[1]": {"tested_on": "acute CYP-induced cystitis in female Sprague-Dawley rats", "assay": "Cyclophosphamide-induced acute cystitis, intravenous treatment, visceral pain", "format": "in vivo, rat", "details": "2 mg/kg, i.v.; 24 h after CYP", "protocol": "The aim of the present study was to evaluate the effects of intravenous treatment with XG-104 (2 mg/kg) on urinary bladder pain in acute CYP-induced cystitis in female Sprague-Dawley rats. This preclinical model is well-used to test therapeutic approaches for the treatment of interstitial cystitis/painful bladder syndrome (IC/PBS).\nAdult female Sprague-Dawley rats (Janvier Labs, Le Genest Saint Isle, France), weighing 215±20 g at the beginning of the experiments, were used. Animals were acclimatized to the laboratory conditions for at least 3 days before the start of any experiments. The animals were allocated to the following four experimental groups (n=10 animals per group):\nTo induce acute cystitis, a single i.p. injection of CYP at a dose of 150 mg/kg in a final volume of 5 mL/kg was performed. Control rats received physiological saline under the same experimental conditions as CYP (final volume of 5 mL/kg, i.p.).\nOn the day of each experiment, weight of rats was recorded.\nAssessment of referred visceral pain using von Frey filaments: Standardized conditions including fixed time-of-day (a.m. to minimize the potential circadian variations in the behaviours responses) and single-experimenter testing of all animals were applied to minimize variability behavior-based pain testing. Visceral pain including allodynia and hyperalgesia was evaluated by applying to the lower abdomen, close to the urinary bladder, a set of 8 calibrated von Frey filaments of increasing forces (1, 2, 4, 6, 8, 10, 26 and 60 g) with an interstimulus interval of 5 seconds. Prior testing, the abdominal area designed for mechanical stimulation of each animal was shaved. Animals were then placed on a raised wire mesh floor under individual transparent Plexiglas box and acclimatized for at least 30 minutes before starting the von Frey test. Filaments were then applied 1-2 seconds through the mesh floor with enough strength to cause the filament to slightly bend. Each filament was tested 3 times. Care was taken to stimulate different areas within the lower abdominal region in the vicinity of the urinary bladder to avoid desensitization.\nThe study design differs from that of Example 24 (cf. FIG. 50 A) only in the route of administration (intravenously instead of intravesically) and the doses as specified above. Birefly, acute cystitis was induced by CYP injection (i.p.) at Do (as described above). […]"}, "[2]": {"assay": "Stability (half-life) in human serum, UPLC-MS", "details": "human serum (10 and 50% in PBS; FIG. 5: 50%), 0.1 mM peptide", "protocol": "The experiment was performed as described by Tugyi et al. (Proc Natl Acad Sci USA, 2005, 413-418). The remaining intact peptide was quantified by UPLC-MS."}}, "note": "Square brackets hold non-standard residues; d marks the D form. Peptide text beside a SMILES is read from it."}
{"compound": "CC(C)C[C@H](NC(=O)[C@H](CC(N)=O)NC(=O)[C@H](CC(C)C)NC(=O)[C@@H](NC(=O)[C@@H](C)NC(=O)[C@@H]1CCCN1C(=O)[C@H](CCCNC(=N)N)NC(=O)[C@@H](CCCCN)NC(=O)[C@@H]1CCCN1C(=O)[C@H](CCCNC(=N)N)NC(=O)[C@@H](CCCNC(=N)N)NC(=O)[C@H](CCCNC(=N)N)NC(=O)[C@H](CCCNC(=N)N)NC(=O)[C@H](CCC(N)=O)NC(=O)[C@@H](CCCNC(=N)N)NC(=O)[C@H](CCCNC(=N)N)NC(=O)[C@H](CCCCN)NC(=O)[C@H](CCCCN)NC(=O)[C@H](N)CCCNC(=N)N)[C@@H](C)O)C(=O)N[C@H](Cc1ccccc1)C(N)=O", "note": "[SEQ ID NO: 172, rKKRrQRRrRPkRPaTLNLf] (H-[dR]KKR[dR]QRR[dR]RP[dK]RP[dA]TLNL[dF]-NH2; N-terminus assumed)", "values": [{"measurement": "PMA+ionomycin-induced IFN-γ release", "setting": "human whole blood", "value": "did reduce the PMA+ionomycin-induced IFN-γ release in a dose-dependent manner"}, {"measurement": "PMA+ionomycin-induced IL-2 release", "setting": "human whole blood", "value": "did reduce the PMA+ionomycin-induced IL-2 release in a dose-dependent manner"}, {"measurement": "PMA+ionomycin-induced TNF-α release", "setting": "human whole blood", "value": "did reduce the PMA+ionomycin-induced TNF-α release in a dose-dependent manner"}, {"measurement": "AUC 1-8 g (allodynia) vs vehicle", "setting": "[1]", "value": "significantly decreased"}, {"measurement": "AUC 8-60 g (hyperalgesia) vs vehicle", "setting": "[1]", "value": "significantly reduced"}, {"measurement": "nociceptive scores vs vehicle", "setting": "[1]", "value": "significantly decreased"}, {"measurement": "nociceptive threshold vs vehicle", "setting": "[1]", "value": "significantly increased"}, {"measurement": "time until completely degraded", "setting": "[2]", "value": 14, "unit": "days"}]}
